Marks after values point to notes of the source that are not given here.
Tests used:
[1] = Study S.241.1.103: 14C mass balance, 8 mg oral and IV; assay type: in vivo, human
Experimental: The extent of absorption, distribution, metabolism, and elimination of cilansetron has been examined in an open-label, randomized, two period, crossover, mass balance study in 6 healthy male subjects who were treated with a single oral and single […] (30-minute infusion) of 8 mg ^14C-labeled (50 K μCi) cilansetron, with a washout of at least 2 weeks between periods. The ^14C-cilansetron was appropriately labeled in the aromatic ring and the label was therefore not metabolically labile. Serial blood samples, urine collection, and fecal collection were performed up to 144 hours following each dose. ^14C-radioactivity was measured in plasma, whole blood, urine, and feces, and unchanged cilansetron was measured in plasma and urine. Identification of metabolites of cilansetron was performed in plasma, urine, and feces. The results of this study are presented in Table 2.7.2.3.15 and the mean concentration-time plots for ^14C-radioactivity and unchanged cilansetron are shown in FIG. 24 and FIG. 25.
Cilansetron and metabolite profiles in plasma, urine, and feces were evaluated using HPLC separation followed by determination of radioactivity using scintillation counting. Cilansetron, (4R)-hydroxy cilansetron, and (4S)-hydroxy cilansetron accounted for 29.3%, 25.7%, and 13.8% of the total radioactivity, respectively, in plasma at 6 hours after oral administration, and for 46.2%, 20.0% and 14.1%3 of the total radioactivity in plasma at 3 hours after IV administration. The cumulative percent of cilansetron and 4-hydroxy metabolites excreted in urine over a 48-hour interval following dosing was 0.5% and 32.8% of the dose, respectively, following oral dosing, and 1.1% and 31.9% of the dose following IV dosing. In the case of fecal excretion over a 96-hour postdose, cilansetron, (4R)-hydroxy cilansetron, and (4S)-hydroxy cilansetron accounted for 1.2%, 6.9%, and 4.6% of the dose following oral administration, and 1.3%, 5.1%, and 11.3% of the dose following IV administration.

[2] = Study S.241.1.109: interaction with ketoconazole 200 mg BID; assay type: in vivo, human; settings: for AUC(0-τ) / Cmax / Tmax: steady state; for AUC(0-τ): AUC(0-8); for AUC(0-τ) / Cmax: arith. mean; for Tmax: median
Experimental: In an open-label, randomized, parallel-group study in three groups of 12 healthy, male and female subjects (aged 19 to 45 years), subjects received a 2 mg single dose of cilansetron on Day 1, 2 mg TID on Days 2-13, and a 2 mg single dose on Day 14. […] All morning doses of cilansetron and enzyme inhibitors were administered immediately after a standard breakfast. […] For each treatment group, log-transformed cilansetron AUC(0-τ) and Cmax values on Day 14 (cilansetron+enzyme inhibitor) were compared statistically versus values on Day 7 (cilansetron alone).

[3] = Study S.241.1.110: pharmacokinetics in renal impairment, 2 mg TID; settings: for AUC(0-τ) / Cmax / T½ / Tmax / Cmin: cilansetron 2 mg TID; for AUC(0-τ) / Cmax / T½ / Cmin: mean (%CV); for Tmax: median; for Cmin: Day 6 morning predose value
[4] = Study S.241.1.110: ex vivo protein binding in serum, healthy and renally impaired; settings: for Fraction unbound ratio All Renal Groups Combined:Healthy / Fraction unbound ratio Mild:Healthy / Fraction unbound ratio Moderate:Healthy / Fraction unbound ratio Severe:Healthy: ratio (90% CI)
Experimental: The ex vivo protein binding of cilansetron and its 4-hydroxy metabolites has been measured in serum samples collected in a multiple-dose study in healthy and renally impaired male and female subjects, aged 33-74 years. […] Healthy subjects were matched to renally-impaired subjects with respect to age, weight, gender, and smoking status. All subjects received oral cilansetron 2 mg TID on Days 1 to 5, and a single dose on the morning of Day 6.

[5] = Cilansetron 2 mg TID + Ketoconazole 200 mg twice daily
[6] = Cilansetron 2 mg TID alone (ketoconazole group)
[7] = cilansetron + ketoconazole / cilansetron alone, ANOVA of log-transformed data
[8] = moderate renal impairment, Day 6

Cc1nccn1CC1CCc2c(c3cccc4c3n2CC[C@@H]4O)C1=O (stereo partly drawn) [(4S)-hydroxy cilansetron]
Share of total radioactivity in plasma ([1]; 3 hours after IV administration): 14.1%
Share of total radioactivity in plasma ([1]; 6 hours after oral administration): 13.8%
Fecal excretion over 96 hours ([1]; IV): 11.3 % of the dose
Fecal excretion over 96 hours ([1]; oral): 4.6 % of the dose
AUC(0-τ) [2, 5]: 13.5 ng·h/mL
Cmax [2, 5]: 2.29 ng/mL
Tmax [2, 5]: 2.00 h
AUC(0-τ) [2, 6]: 8.42 ng·h/mL
Cmax [2, 6]: 1.35 ng/mL
Tmax [2, 6]: 3.00 h
AUC(0-τ) Ratio (Treatment B/A) [2, 7]: 163%
Cmax Ratio (Treatment B/A) [2, 7]: 174%
Plasma Conc. ([3]; Day 6 1 h, Healthy): 1.60 (26) ng/mL
Plasma Conc. ([3]; Day 6 1 h, Mild): 2.26 (43) ng/mL
Plasma Conc. ([3]; Day 6 1 h, Moderate): 2.74 (58) ng/mL
Plasma Conc. ([3]; Day 6 1 h, Severe): 8.32 (40) ng/mL
AUC(0-τ) ratio Mild/Healthy ([3]; Day 6, geometric LS mean ratio (90% CI)): 119 (85, 168) %
AUC(0-τ) ratio Moderate/Healthy ([3]; Day 6, ratio (90% CI)): 174 (120, 251)* %
AUC(0-τ) ratio Renal Combined/Healthy ([3]; Day 6, ratio (90% CI)): 219 (168, 286)* %
AUC(0-τ) ratio Severe/Healthy ([3]; Day 6, ratio (90% CI)): 507 (351, 733)* %
Cmax ratio Mild/Healthy ([3]; Day 6, ratio (90% CI)): 129 (91, 181) %
Cmax ratio Moderate/Healthy ([3]; Day 6, ratio (90% CI)): 171 (118, 248)* %
Cmax ratio Renal Combined/Healthy ([3]; Day 6, ratio (90% CI)): 220 (168, 288)* %
Cmax ratio Severe/Healthy ([3]; Day 6, ratio (90% CI)): 485 (335, 702)* %
T½ ratio Mild/Healthy ([3]; Day 6, ratio (90% CI)): 108 (81, 144) %
T½ ratio Moderate/Healthy ([3]; Day 6, ratio (90% CI)): 142 (104, 193) %
T½ ratio Renal Combined/Healthy ([3]; Day 6, ratio (90% CI)): 142 (113, 177)* %
T½ ratio Severe/Healthy ([3]; Day 6, ratio (90% CI)): 186 (136, 254)* %
Plasma Conc. ([3]; Day 6 […], Healthy): 1.68 (25) ng/mL
Plasma Conc. ([3]; Day 6 […], Mild): 1.91 (35) ng/mL
Plasma Conc. ([3]; Day 6 […], Moderate): 2.98 (56) ng/mL
Plasma Conc. ([3]; Day 6 […], Severe): 8.57 (32) ng/mL
AUC(0-τ) ([3]; healthy subjects, Day 6): 12.9 (25) ng · h/mL
Cmax ([3]; healthy subjects, Day 6): 2.15 (21) ng/mL
T½ ([3]; healthy subjects, Day 6): 8.68 (29) h
Tmax ([3]; healthy subjects, Day 6): 2.00 h
Cmin ([3]; healthy subjects): 1.24 (31) ng/mL
Mean AUC(0-τ) increase vs healthy ([3]; mild impairment): 19%
Mean Cmax increase vs healthy ([3]; mild impairment): 29%
AUC(0-τ) ([3]; mild renal impairment, Day 6): 15.3 (25) ng · h/mL
Cmax ([3]; mild renal impairment, Day 6): 2.77 (22) ng/mL
T½ ([3]; mild renal impairment, Day 6): 9.31 (24) h
Tmax ([3]; mild renal impairment, Day 6): 2.00 h
Cmin ([3]; mild renal impairment): 1.76 (38) ng/mL
Mean AUC(0-τ) increase vs healthy ([3]; moderate impairment): 74%
Mean Cmax increase vs healthy ([3]; moderate impairment): 71%
AUC(0-τ) [3, 8]: 25.3 (64) ng · h/mL
Cmax [3, 8]: 4.10 (60) ng/mL
T½ [3, 8]: 12.4 (28) h
Tmax [3, 8]: 1.75 h
Cmin ([3]; moderate renal impairment): 2.71 (72) ng/mL
Mean AUC(0-τ) increase vs healthy ([3]; severe impairment): 407%
Mean Cmax increase vs healthy ([3]; severe impairment): 385%
AUC(0-τ) ([3]; severe renal impairment, Day 6): 67.0 (35) ng · h/mL
Cmax ([3]; severe renal impairment, Day 6): 11.2 (46) ng/mL
T½ ([3]; severe renal impairment, Day 6): 16.7 (45) h
Tmax ([3]; severe renal impairment, Day 6): 1.40 h
Cmin ([3]; severe renal impairment): 7.00 (35) ng/mL
Fraction unbound ratio All Renal Groups Combined:Healthy ([4]; 1 h): 102 (86, 121) %
Fraction unbound ratio Mild:Healthy ([4]; 1 h): 81 (65, 101) %
Fraction unbound ratio Moderate:Healthy ([4]; 1 h): 124 (98, 156) %
Fraction unbound ratio Severe:Healthy ([4]; 1 h): 106 (84, 133) %
Fraction Unbound in Serum ([4]; Day 6 1 h, Healthy): 53.6 (20) %
Fraction Unbound in Serum ([4]; Day 6 1 h, Mild): 42.8 (7) %
Fraction Unbound in Serum ([4]; Day 6 1 h, Moderate): 69.3 (45) %
Fraction Unbound in Serum ([4]; Day 6 1 h, Severe): 56.1 (15) %
Fraction Unbound in Serum ([4]; Day 6 […], Healthy): 58.0 (21) %
Fraction Unbound in Serum ([4]; Day 6 […], Mild): 46.3 (11) %
Fraction Unbound in Serum ([4]; Day 6 […], Moderate): 57.4 (28) %
Fraction Unbound in Serum ([4]; Day 6 […], Severe): 42.4 (9) %
Fraction Unbound in Serum ([4]; Day 6 predose, Healthy): 51.9 (24) %
Fraction Unbound in Serum ([4]; Day 6 predose, Mild): 48.9 (40) %
Fraction Unbound in Serum ([4]; Day 6 predose, Moderate): 54.0 (26) %
Fraction Unbound in Serum ([4]; Day 6 predose, Severe): 51.4 (30) %
Fraction unbound ratio All Renal Groups Combined:Healthy ([4]; […]): 84 (72, 99) %
Fraction unbound ratio Mild:Healthy ([4]; […]): 81 (67, 99) %
Fraction unbound ratio Moderate:Healthy ([4]; […]): 99 (80, 123) %
Fraction unbound ratio Severe:Healthy ([4]; […]): 75 (60, 93)^b %
Protein bound on average ([4]; healthy subjects): 42.0-48.1%
Fraction unbound ratio All Renal Groups Combined:Healthy ([4]; predose): 98 (79, 121) %
Fraction unbound ratio Mild:Healthy ([4]; predose): 91 (69, 121) %
Fraction unbound ratio Moderate:Healthy ([4]; predose): 104 (77, 140) %
Fraction unbound ratio Severe:Healthy ([4]; predose): 98 (73, 133) %
Plasma protein bound ([4]; therapeutic concentration range): 42-48%

— patent US20090176817A1, “Method of Treatment of Diarrhea-Predominant Irritable Bowel Syndrome in a Subject” (priority 2005, published 2009)
